Reference: patent US20250197343A1, “CATIONIC LIPID” (TAKEDA PHARMACEUTICAL COMPANY LIMITED, priority 2021, published 2025)
Like-named read-outs stand apart in the source and are kept apart here.

How the values were obtained:
[1] = Particle size of Luc DNA-encapsulated lipid nanoparticles; type: physicochemical; conditions: cationic lipid:DPPC:cholesterol:GM-020=60:10.6:28:1.4 molar ratio
Procedure, shortened: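 LNPs of cationic lipid:DPPC:cholesterol:GM-020 (60:10.6:28:1.4 molar) encapsulating luciferase DNA, made by microfluidic mixing with DNA in 10 mM MES pH 5.5, dialysed into PBS, stored in 20% sucrose/PBS at −80 °C. Size by dynamic light scattering, reported as cumulant Z-average.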

[2] = test system: ICrl:CD1 (ICR) mice; test: Mouse bioluminescence imaging evaluation (Test Example 1); type: in vivo; conditions: Luc DNA-encapsulated lipid nanoparticles 10 mL/kg i.v. to ICR mice; IVIS total flux 15 minutes after luciferin i.p.
Procedure, shortened: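 ICR mice received Luc DNA-encapsulated lipid nanoparticles i.v. (10 mL/kg), then luciferin 15 mg/mL i.p. (10 mL/kg). Ventral IVIS imaging under isoflurane 15 min after luciferin; total flux scored A (≥3.0E+07), B (1.0E+07 to <3.0E+07), C (<1.0E+07).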

[3] = Rate of encapsulation of Luc DNA in lipid nanoparticles; type: physicochemical; design: unit: %; conditions: Luc DNA-encapsulated lipid nanoparticles; cationic lipid:DPPC:cholesterol:GM-020=60:10.6:28:1.4 molar ratio
Procedure, shortened: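 Luc DNA-LNPs (cationic lipid:DPPC:cholesterol:GM-020 = 60:10.6:28:1.4 molar) formed by microfluidic mixing with DNA in 10 mM MES pH 5.5, then dialyzed into PBS. RiboGreen fluorescence measured with and without Triton X-100; encapsulation rate is the encapsulated fraction of total nucleic acid.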

[4] = test system: Huh-7 cells; test: Evaluation of viability using Huh-7 cells (Test Example 2); type: cell-based
Experimental: Huh-7 cells were seeded in a 96-well plate, and PBS, the Luc DNA-encapsulated lipid nanoparticles obtained in the aforesaid Production Example by using the cationic lipids of the Examples shown in Table 3, or Luc DNA-encapsulated lipid nanoparticles for control which were obtained in the same manner as in the aforesaid Production Example except that a known lipid, MC3 (DLin-MC3-DMA) or ALC-0315, was used instead of the cationic lipids of the Examples were added thereto (final concentration: 0.1 μg/mL and 0.3 μg/mL), followed by evaluation of viability (CellTiter-Fluor Cell Viability Assay, Promega Corporation). Taking the viability of dead cell group as 0% and the viability of the PBS group as 100%, the viability of each of the lipid particle groups was calculated. Higher viability indicates higher safety of the lipid particles. When the cationic lipids of the Examples were used, an improvement in safety compared to the control groups of MC3 and ALC-0315 was observed.

[5] = Huh-7 cells, Luc DNA-encapsulated lipid nanoparticles, final concentration 0.1 μg/mL, PBS group = 100%, dead cell group = 0%
[6] = Huh-7 cells, Luc DNA-encapsulated lipid nanoparticles, final concentration 0.3 μg/mL, PBS group = 100%, dead cell group = 0%

SMILES: CCCCCC(CCCCC)OC(=O)CCC(=O)OCC(COC(=O)CCCN(C)C)(COC(=O)CCC(=O)OC(CCCCC)CCCCC)COC(=O)CCC(=O)OC(CCCCC)CCCCC [Example 39, 1,1′-{2-({[4-(Dimethylamino)butanoyl]oxy}methyl)-2-[({4-oxo-4-[(undecan-6-yl)oxy]butanoyl}oxy)methyl]propane-1,3-diyl} 4,4′-diundecan-6-yl dibutanedioate]
- Particle size (nm) [1]: 135.2 nm
- Luminescence [2]: B (B represents luminescence of 1.0E+0.7 or more and less than 3.0E+07)
- Rate of encapsulation [3]: 98.5
- Viability 0.1 μg/ml (%) [4]: 113%
- Viability 0.3 μg/ml (%) [4]: 94%

SMILES: CCCCCCCOC(=O)CCCCC(=O)OCC(COC(=O)CCCCC(=O)OCCCCCCC)(COC(=O)CCCN(C)C)COC(=O)CC(CCCCC)CCCCC [Example 13, 1,1′-[2-({[4-(Dimethylamino)butanoyl]oxy}methyl)-2-{[(3-pentyloctanoyl)oxy]methyl}propane-1,3-diyl] 6,6′-diheptyl dihexanedioate]
- Particle size (nm) [1]: 136.5 nm
- Luminescence [2]: A (A represents luminescence of 3.0E+07 or more)
- Rate of encapsulation [3]: 96.3
- Viability 0.1 μg/ml (%) [4, 5]: 112%
- Viability 0.3 μg/ml (%) [4, 6]: 105%

SMILES: CCCCCCCCCOC(=O)CCCCC(=O)OCC(COC(=O)CCCCC(=O)OCCCCCCCCC)(COC(=O)CCCCC(=O)OCCCCCCCCC)COC(=O)CCCN(C)C [Example 41, 1,1′-[2-({[4-(Dimethylamino)butanoyl]oxy}methyl)-2-({[6-(nonyloxy)-6-oxohexanoyl]oxy}methyl)propane-1,3-diyl] 6,6′-dinonyl dihexanedioate]
- Particle size (nm) [1]: 138.0 nm
- Luminescence [2]: B (B represents luminescence of 1.0E+0.7 or more and less than 3.0E+07)
- Rate of encapsulation [3]: 80.3
- Viability 0.1 μg/ml (%) [4, 5]: 111%
- Viability 0.3 μg/ml (%) [4, 6]: 101%

SMILES: CCCCCCCCCCOC(=O)CCCCC(=O)OCC(COC(=O)CCCN(C)C)(COC(=O)CC(CCCCC)CCCCC)COC(=O)CC(CCCCC)CCCCC [Example 51, Decyl 2-({[4-(dimethylamino)butanoyl]oxy}methyl)-3-[(3-pentyloctanoyl)oxy]-2-{[(3-pentyloctanoyl)oxy]methyl}propyl hexanedioate]
- Particle size (nm) [1]: 83.9 nm
- Luminescence [2]: B (B represents luminescence of 1.0E+0.7 or more and less than 3.0E+07)
- Rate of encapsulation [3]: 98.2
- Viability 0.1 μg/ml (%) [4, 5]: 104%
- Viability 0.3 μg/ml (%) [4, 6]: 78%

SMILES: CCCCCCCCC(CCCCCC)C(=O)OCCCCCCN(CCCCO)CCCCCCOC(=O)C(CCCCCC)CCCCCCCC (stereo not shown) [ALC-0315, reference compound]
- Viability 0.1 μg/ml (%) [4, 5]: 89%
- Viability 0.3 μg/ml (%) [4, 6]: 68%

SMILES: CCCCCCCOC(=O)CCCCC(=O)OCC(COC(=O)CCCCN(C)C)(COC(=O)CC(CCCCC)CCCCC)COC(=O)CC(CCCCC)CCCCC [Example 18, 2-({[5-(Dimethylamino)pentanoyl]oxy}methyl)-3-[(3-pentyloctanoyl)oxy]-2-{[(3-pentyloctanoyl)oxy]methyl}propyl heptyl hexanedioate]
- Particle size (nm) [1]: 138.9 nm
- Luminescence [2]: A (A represents luminescence of 3.0E+07 or more)
- Rate of encapsulation [3]: 96.6
- Viability 0.1 μg/ml (%) [4, 5]: 110%
- Viability 0.3 μg/ml (%) [4, 6]: 106%

SMILES: CCCCCCCOC(=O)CCCCC(=O)OCC(COC(=O)CCCCC(=O)OCCCCCCC)(COC(=O)CCCN(C)CCO)COC(=O)CC(CCCCC)CCCCC [Example 93, 1,1′-Diheptyl 6,6′-(2-[({4-[(2-hydroxyethyl)(methyl)amino]butanoyl}oxy)methyl]-2-{[(3-pentyloctanoyl)oxy]methyl}propane-1,3-diyl) dihexanedioate]
- Particle size (nm) [1]: 145.6 nm
- Luminescence [2]: B (B represents luminescence of 1.0E+0.7 or more and less than 3.0E+07)
- Rate of encapsulation [3]: 94.8
- Viability 0.1 μg/ml (%) [4, 5]: 105%
- Viability 0.3 μg/ml (%) [4, 6]: 101%

SMILES: CCCCCC(CCCCC)CC(=O)OCC(COC(=O)CCCCC(=O)OCC(CCCC)CCCC)(COC(=O)CCCCC(=O)OCC(CCCC)CCCC)COC(=O)CCCN(C)C [Example 117, 1,1′-Bis(2-butylhexyl) 6,6′-[2-({[4-(dimethylamino)butanoyl]oxy}methyl)-2-{[(3-pentyloctanoyl)oxy]methyl}propane-1,3-diyl] dihexanedioate]
- Particle size (nm) [1]: 161.0 nm
- Luminescence [2]: B (B represents luminescence of 1.0E+0.7 or more and less than 3.0E+07)
- Rate of encapsulation [3]: 82.0

SMILES: CCCCCCCCOC(=O)CCCCC(=O)OCC(COC(=O)CCCCC(=O)OCCCCCCCC)(COC(=O)CCCN(C)C)COC(=O)CC(CCCCC)CCCCC [Example 43, 1,1′-[2-({[4-(Dimethylamino)butanoyl]oxy}methyl)-2-{[(3-pentyloctanoyl)oxy]methyl}propane-1,3-diyl] 6,6′-dioctyl dihexanedioate]
- Particle size (nm) [1]: 126.7 nm
- Luminescence [2]: A (A represents luminescence of 3.0E+07 or more)
- Rate of encapsulation [3]: 96.0

SMILES: CCCCCC(CCCCC)COC(=O)CCC(=O)OCC(COC(=O)CCCN(C)C)(COC(=O)CCC(=O)OCC(CCCCC)CCCCC)COC(=O)CC(CCCCC)CCCCC [Example 95, 1,1′-[2-({[4-(Dimethylamino)butanoyl]oxy}methyl)-2-{[(3-pentyloctanoyl)oxy]methyl}propane-1,3-diyl] 4,4′-bis(2-pentylheptyl) dibutanedioate]
- Particle size (nm) [1]: 82.6 nm
- Luminescence [2]: B (B represents luminescence of 1.0E+0.7 or more and less than 3.0E+07)
- Rate of encapsulation [3]: 99.1

SMILES: CCCCC/C=C\C/C=C\CCCCCCCCC(CCCCCCCC/C=C\C/C=C\CCCCC)OC(=O)CCCN(C)C [MC3, reference compound]
- Viability 0.1 μg/ml (%) [4, 5]: 97%
- Viability 0.3 μg/ml (%) [4, 6]: 49%

SMILES: CCCCCC(CCCCC)CC(=O)OCC(COC(=O)CCCCC(=O)OCCCC)(COC(=O)CCCN(CC)CC)COC(=O)CC(CCCCC)CCCCC [Example 21, Butyl 2-({[4-(diethylamino)butanoyl]oxy}methyl)-3-[(3-pentyloctanoyl)oxy]-2-{[(3-pentyloctanoyl)oxy]methyl}propyl hexanedioate]
- Particle size (nm) [1]: 131.4 nm
- Luminescence [2]: B (B represents luminescence of 1.0E+0.7 or more and less than 3.0E+07)
- Rate of encapsulation [3]: 96.2

SMILES: CCCCCCCOC(=O)CCCCC(=O)OCC(COC(=O)CCCCC(=O)OCCCCCCC)(COC(=O)CCCN(C(C)C)C(C)C)COC(=O)CC(CCCCC)CCCCC [Example 92, 1,1′-(2-[({4-[di(Propan-2-yl)amino]butanoyl}oxy)methyl]-2-{[(3-pentyloctanoyl)oxy]methyl}propane-1,3-diyl] 6,6′-diheptyl dihexanedioate]
- Particle size (nm) [1]: 125.7 nm
- Luminescence [2]: B (B represents luminescence of 1.0E+0.7 or more and less than 3.0E+07)
- Rate of encapsulation [3]: 94.1
